The source made the active and inactive calls. The rule behind the calls is not given here.
How the values were obtained:
Mus musculus [1] = assay: Antiperiodontitic activity in BALB/c mouse model of Porphyromonas gingivalis-induced periodontitis assessed as reduction in alveolar bone resorption at 100 ug/kg, id dosed once in 2 days for 30 days; type: functional, organism-based
Mus musculus [2] = assay: Antiperiodontitic activity in BALB/c mouse model of Porphyromonas gingivalis-induced periodontitis assessed as reduction in maxillary tissue CtsK mRNA levels at 100 ug/kg, id dosed once in 2 days for 30 days; type: functional, organism-based
BMMC [3] = assay: Reduction in M-CSF/RANKL-induced NFATc1 mRNA levels in C57BL/6 mouse BMMC at 20 uM after 3 days by RT-qPCR analysis; type: functional, cell-based
BMMC [4] = assay: Reduction in M-CSF/RANKL-induced Itgb3 mRNA levels in C57BL/6 mouse BMMC at 20 uM after 3 days by RT-qPCR analysis; type: functional, cell-based
BMMC [5] = assay: Reduction in M-CSF/RANKL-induced Trap/Acp5 mRNA levels in C57BL/6 mouse BMMC at 20 uM after 3 days by RT-qPCR analysis; type: functional, cell-based
BMMC [6] = assay: Cytotoxicity against C57BL/6 mouse BMMC at 5 to 20 uM after 3 days in presence of M-CSF/RANKL by MTT assay; type: cell-based; details: 72 h
BMMC [7] = assay: Downregulation of M-CSF/RANKL-induced integrin alphaV protein expression levels in C57BL/6 mouse BMMC at 20 uM after 3 days by Western blot analysis; type: functional, cell-based
BMMC [8] = assay: Downregulation of M-CSF/RANKL-induced NFATc1 protein expression levels in C57BL/6 mouse BMMC after 3 days by Western blot analysis; type: functional, cell-based
BMMC [9] = assay: Inhibition of M-CSF/RANKL-induced matrix resorption capacity in C57BL/6 mouse BMMC at 10 to 20 uM after 4 days in hydroxyapatite-coated plates; type: functional, cell-based
BMMC [10] = assay: Downregulation of M-CSF/RANKL-induced CTSK protein expression levels in C57BL/6 mouse BMMC at 20 uM after 3 days by Western blot analysis; type: functional, cell-based
BMMC [11] = assay: Inhibition of M-CSF/RANKL-induced osteoclast differentiation in C57BL/6 mouse BMMC assessed as decrease in multinucleated TRAP+ cells at 20 uM after 3 days by TRAP staining-based assay; type: functional, cell-based
[12] = biological target: Matrix metalloproteinase-9 (Mus musculus) (UniProt P41245); assay: Inhibition of MMP9 activity in C57BL/6 mouse BMMC at 5 to 20 uM by coomassie blue staining-based gelatin zymography assay; type: cell-based
Mus musculus [13] = assay: Antiperiodontitic activity in BALB/c mouse model of Porphyromonas gingivalis-induced periodontitis assessed as reduction in maxillary tissue Mmp9 mRNA levels at 100 ug/kg, id dosed once in 2 days for 30 days; type: functional, organism-based
BMMC [14] = assay: Reduction in M-CSF/RANKL-induced MMP-9 mRNA levels in C57BL/6 mouse BMMC at 20 uM after 3 days by RT-qPCR analysis; type: functional, cell-based
BMMC [15] = assay: Reduction in M-CSF/RANKL-induced Ctsk mRNA levels in C57BL/6 mouse BMMC at 20 uM after 3 days by RT-qPCR analysis; type: functional, cell-based
Mus musculus [16] = assay: Antiperiodontitic activity in BALB/c mouse model of Porphyromonas gingivalis-induced periodontitis assessed as reduction in maxillary tissue Trap/Acp5 mRNA levels at 100 ug/kg, id dosed once in 2 days for 30 days; type: functional, organism-based
BMMC [17] = assay: Reduction in M-CSF/RANKL-induced V-ATPase mRNA levels in C57BL/6 mouse BMMC at 20 uM after 3 days by RT-qPCR analysis; type: functional, cell-based
BMMC [18] = assay: Inhibition of M-CSF/RANKL-induced osteoclast differentiation in C57BL/6 mouse BMMC assessed as decrease in multinucleated TRAP+ cells after 3 days by TRAP staining-based assay; type: functional, cell-based

Matrix metalloproteinase-9 (Mus musculus), sequence (P41245 whole entry): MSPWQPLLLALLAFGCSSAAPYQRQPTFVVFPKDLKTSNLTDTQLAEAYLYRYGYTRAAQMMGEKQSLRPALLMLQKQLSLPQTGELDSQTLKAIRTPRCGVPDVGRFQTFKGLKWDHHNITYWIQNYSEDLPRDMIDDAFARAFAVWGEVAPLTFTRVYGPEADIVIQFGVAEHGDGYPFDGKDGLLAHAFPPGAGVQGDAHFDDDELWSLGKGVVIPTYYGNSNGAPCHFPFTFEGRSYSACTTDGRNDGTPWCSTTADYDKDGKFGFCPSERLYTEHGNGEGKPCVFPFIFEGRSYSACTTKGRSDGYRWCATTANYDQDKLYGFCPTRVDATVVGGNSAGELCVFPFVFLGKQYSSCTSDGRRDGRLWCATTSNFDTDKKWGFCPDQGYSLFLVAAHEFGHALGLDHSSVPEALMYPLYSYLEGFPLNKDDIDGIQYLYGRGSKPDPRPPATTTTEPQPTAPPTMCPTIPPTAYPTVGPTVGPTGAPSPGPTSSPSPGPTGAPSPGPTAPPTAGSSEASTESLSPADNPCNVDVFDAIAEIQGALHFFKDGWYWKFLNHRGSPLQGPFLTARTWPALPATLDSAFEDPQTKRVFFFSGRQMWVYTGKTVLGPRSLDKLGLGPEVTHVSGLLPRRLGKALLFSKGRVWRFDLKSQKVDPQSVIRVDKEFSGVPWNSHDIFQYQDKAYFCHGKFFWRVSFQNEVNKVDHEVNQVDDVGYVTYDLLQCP

For `CC(C)=CCc1c(O)c(C(=O)CC(C)COC(=O)/C=C/c2ccccc2)c(O)c2c(-c3ccccc3)cc(=O)oc12` (stereo not drawn), the Activity (Mus musculus [1]) was “Active”, the Activity (Mus musculus [2]) was “Active” and the Activity (BMMC [3]) was “Active”. For the same compound, the Activity (BMMC [4]) was “Active”, the Activity (BMMC [5]) was “Active” and the Activity (BMMC [6]) was “Non-Toxic”. The Activity (BMMC [7]) was “Active”, the Activity (BMMC [8]) was “Dose-dependent effect” and the inhibition (BMMC [9]) was “Active”. For the same compound, the Activity (BMMC [10]) was “Active”, the inhibition (BMMC [11]) was “Active” and the inhibition [12] was “Active”. The Activity (Mus musculus [13]) was “inactive”, the Activity (BMMC [14]) was “Active” and the Activity (BMMC [15]) was “Active”. For the same compound, the Activity (Mus musculus [16]) was “Active”, the Activity (BMMC [17]) was “Active” and the inhibition (BMMC [18]) was “Dose-dependent effect”.

Reference: ChEMBL document CHEMBL4190203, “Effects of Cinnamoyloxy-mammeisin from Geopropolis on Osteoclast Differentiation and Porphyromonas gingivalis-Induced Periodontitis” (J Nat Prod, 2017)
